Results from patent US20190290614A1, “Methods for Reducing Recurrence of Tumors” (Beth Israel Deaconess Medical Center, Inc., priority 2016, published 2019).

Experiments:
[1] = system: Lewis Lung carcinoma (LLC); experiment: spontaneous LLC lung metastasis model after primary tumor resection (survival); type: in vivo, mice; conditions: for mimicked the action of ketorolac in prolonging survival after primary LLC tumor resection: FR122047 20, TFAP 30, SC-560 30, indomethacin 3 mg/kg i.p., celecoxib 60 mg/kg oral gavage, FIG. 1B
From the text: Doses were selected based on previous publications by the present inventors and others, and/or by analogy to the human dose.

MMTV-PyMT breast tumor = experiment: surgery-stimulated (laparotomy) spontaneous tumor model, genetically engineered murine breast tumor model; type: in vivo; conditions: FIG. 1C
E0771 breast cancer = experiment: spontaneous E0771 breast cancer metastasis model after primary tumor resection; type: in vivo; conditions: pre-operative; FIG. 1D
B16F10 melanoma [2] = experiment: laparotomy-stimulated primary tumor dormancy escape, B16F10; type: in vivo; conditions: pre-surgical administration; 1×10^3 cells; FIG. 2A
From the text: (§1) (A-C) Surgery (i.e. laparotomy) stimulated primary tumor dormancy escape in a B16F10 melanoma (1×10^3 cells), Lewis lung carcinoma (LLC 1×10^4 cells), and EL4 lymphoma (1×10^4 cells). Images show representative tumors on Day 35 post-injection; Scale bar, 1 cm.
(§2) Surgery (i.e., laparotomy, which is a surgical procedure involving a large incision through the abdominal wall to gain access into the abdominal cavity, also known as a celiotomy) stimulated primary tumor dormancy escape in a B16F10 melanoma (1×10^3 cells, see Kalpainen et al., PLoS One. 2007 Feb. 28; 2(2):e260 and Panigraphy et al., J Clin Invest. 2012 January; 122(1):178-91; FIG. 2A), Lewis lung carcinoma (LLC 1×10^4 cells, FIG. 2B), and EL4 lymphoma (1×10^4 cells, FIG. 2C).

[3] = system: Lewis lung carcinoma (LLC); experiment: laparotomy-stimulated primary tumor dormancy escape, LLC; type: in vivo; conditions: pre-surgical administration; 1×10^4 cells; FIG. 2B
From the text: as §1, §2

EL4 lymphoma = experiment: laparotomy-stimulated primary tumor dormancy escape, EL4; type: in vivo; conditions: pre-surgical administration; 1×10^4 cells; FIG. 2C
From the text: as §1, §2

T241 fibrosarcoma = experiment: liver biopsy-stimulated lung metastasis post primary tumor resection; type: in vivo; conditions: pre-surgical administration; FIG. 2D
From the text: (D) Liver biopsy stimulated lung metastasis post primary tumor resection (T241 fibrosarcoma).
In addition, liver biopsy alone stimulated lung metastasis post primary tumor resection in a T241 fibrosarcoma model (O'Reilly et al., Cell. 1994 Oct. 21; 79(2):315-28 and Panigraphy et al., J Clin Invest. 2012 January; 122(1):178-91).

LLC [4] = experiment: LLC tumor resection in nude athymic mice; type: in vivo, nude athymic C57BL/6 mice; conditions: administered prior to LLC tumor resection; FIG. 3A
Procedure: To determine whether the effects of Ketorolac were due to actions on the immune system, the effects of ketorolac administered prior to LLC tumor resection was determined in nude athymic C57BL/6 mice, SCID mice, and Rag1 KO Mice.

human lung tumor (H460) = experiment: human lung tumor primary tumor resection in SCID mice; type: in vivo; conditions: FIG. 3B
B16F10 = experiment: laparotomy-induced tumor dormancy escape in Rag1 KO mice; type: in vivo; conditions: B16F10, 1×10^3; FIG. 3C
LLC [5] = experiment: second tumor challenge 200 days after LLC tumor resection; type: in vivo, immunocompetent mice (C57BL6); conditions: 200 days post LLC tumor resection, ketorolac preoperatively; FIG. 4A
Procedure: To determine whether perioperative COX-1 inhibition produces a durable immune response to the cancer, immunocompetent mice (C57BL6) at 200 days after undergoing LLC tumor resection during which they were administered ketorolac preoperatively, were given a second tumor challenge with the same tumor types (LLC).

B16F10 melanoma [6] = experiment: third tumor challenge with a different tumor-type; type: in vivo, immunocompetent mice (C57BL6); conditions: same mice, FIG. 4A
LLC [7] = experiment: LLC tumor resection in WT and COX-2 KO mice (metastasis); type: in vivo; conditions: administered prior to surgery, FIG. 4B
LLC tumor cells = experiment: Hematoxylin & Eosin analysis of lungs after LLC tumor resection; type: in vivo, mice; conditions: 240 days post-surgery; i.p. 7.5 mg/kg 2 hours prior to surgery; abundant LLC tumor cells at Day 0
From the text: Representative micrographs of 4 different mice per group (total of 10 mice/group).

prostate cancer = conditions: after radical prostatectomy for prostate cancer; retrospective; cited from earlier work
[8] = human, in vivo; cited from earlier work
[9] = in vivo; cited from earlier work
[10] = used alone; single subcutaneous injection before the resection; cited from earlier work

O=C(c1ccccc1)c1ccc2n1CCC2C(=O)O (centres unmarked) [ketorolac, ketorolac tromethamine]
tumor micrometastasis by immunohistochemistry ([1]; 180 to 200 days, micrometastasis present on day of tumor resection): no evidence of tumor micrometastasis
survival after primary tumor resection ([1]; pre-operative (2 hrs prior to surgery), ketorolac 7.5 mg/kg I.P., celecoxib 30 mg/kg bid po, FIG. 1A): prolonged survival
"cured" (long term survival) ([1]; pre-operative, syngeneic LLC lung cancer model): approximately 50 % of mice
survival (MMTV-PyMT breast tumor): prolonged survival
survival after primary tumor resection (E0771 breast cancer): prolonged survival
surgery-induced tumor dormancy escape (B16F10 melanoma [2]): inhibited surgery-induced tumor dormancy escape
surgery-induced tumor dormancy escape [3]: inhibited surgery-induced tumor dormancy escape
surgery-induced tumor dormancy escape (EL4 lymphoma): inhibited surgery-induced tumor dormancy escape
biopsy-stimulated lung metastasis (T241 fibrosarcoma): inhibited this biopsy-stimulated lung metastasis
anti-metastatic activity (LLC [4]): did not have anti-metastatic activity
metastases after primary tumor resection (human lung tumor (H460)): did not inhibit metastases
laparotomy-induced tumor dormancy escape (B16F10): did not inhibit laparotomy-induced tumor dormancy escape
response to second tumor challenge (LLC) (LLC [5]): resisted a second tumor challenge
response to third tumor challenge (B16F10 melanoma) (B16F10 melanoma [6]): exhibited rapid tumor growth
tumor metastasis (LLC [7]; COX-2 knockout (KO) mice): prevented tumor metastasis
tumor metastasis (LLC [7]; WT mice): prevented tumor metastasis
tumor cells in lungs (Hematoxylin & Eosin) (LLC tumor cells): no tumor cells were detectable
benefit of perioperative use (prostate cancer): no benefit
major side effect [8]: increased bleeding time

COc1ccc(-c2nc(C(=O)N3CCN(C)CC3)sc2-c2ccc(OC)cc2)cc1.Cl [FR122047, 1-[[4,5-bis(4-Methoxyphenyl)-2-thiazolyl]carbonyl]-4-methylpiperazine hydrochloride]
mimicked the action of ketorolac in prolonging survival after primary LLC tumor resection [1]: mimicked the action of ketorolac

CN1CC[C@]23c4c5ccc(O)c4O[C@H]2[C@@H](O)C=C[C@H]3[C@H]1C5 [morphine]
effect on angiogenesis, tumor cell proliferation, primary tumor growth and metastasis [9]: stimulates angiogenesis, tumor cell proliferation, primary tumor growth and metastasis

Nc1ccc(NC(=O)c2ccc(C(F)(F)F)cc2)nc1 [TFAP, N-(5-amino-2-pyridinyl)-4-trifluoromethylbenzamide]
mimicked the action of ketorolac in prolonging survival after primary LLC tumor resection [1]: mimicked the action of ketorolac

CCc1cccc2c3c([nH]c12)C(CC)(CC(=O)O)OCC3 (centres unmarked) [etodolac]
spontaneous postoperative metastasis [10]: did not prevent spontaneous postoperative metastasis
